Laboratory results taken from patent publication US7718681B2, “5-(1,3-Diaryl-1H-pyrazol-4-ylmethylene)-thiazolidine,2,4-dione derivatives useful as anticancer agent” (Korea Research Institute of Chemical Technology, priority 2005, dated 2010).

Tested on: C33A human uterine cancer cell line
Assay: not given
Details: mouse, in vivo

In the case of `N.N.[Cl][Pt][Cl]` [cisplatin, reference compound], the “negative responses (reduced motion, lack of appetite)” value is reported as “reduced motion or lack of appetite”.

Target: T1, CDC25B (Homo sapiens, UniProt P30305)
T1 construct: Catalytic domain of CDC25B (aa 378-566) was expressed and produced in E. coli into a GST fusion protein; GST; made in house; host or cells: E. coli
T1 sequence (P30305 378-566 isoform P30305-2): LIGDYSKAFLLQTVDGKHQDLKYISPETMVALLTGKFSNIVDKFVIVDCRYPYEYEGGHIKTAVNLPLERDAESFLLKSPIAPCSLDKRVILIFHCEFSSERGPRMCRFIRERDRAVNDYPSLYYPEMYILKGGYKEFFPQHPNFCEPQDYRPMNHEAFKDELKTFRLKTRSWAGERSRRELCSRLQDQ
Assay: CDC25B enzyme assay
Assay type: biochemical
Details: catalytic domain of CDC25B (aa 378-566) GST fusion, 20 μm FDP, 1 hour at room temperature, fluorescence
Experimental: Catalytic domain of CDC25B (aa 378-566) was expressed and produced in E. coli into a GST fusion protein, which was used as zymogen. Enzyme assay was carried out on a 96-well plate, with the final reaction volume per well adjusted to 200 μL. 170 μL of a buffer solution (30 mM Tris buffer, pH 8.5, 75 mM NaCl, 0.67 mM EDTA, 1 mM DTT), 20 μL (0.2 μg) of CDC25B enzyme and 10 μL of the test compound dissolved in DMSO were added, so that the final concentration became 1 μg/mL CDC25B and 20 μm FDP. Measurement was made after culturing at room temperature for 1 hour. FDP and DTT were added to the buffer solution just before assay, so that a fresh status could be maintained. After 1 hour of culturing, fluorescence resultant from the enzymatic reaction was measured at 485 nm (excitation) and 538 nm (emission).
The screened compound was treated to a final concentration of 1, 2, 5 and 10 μm to obtain the % inhibition value. If the inhibitory effect was low (less than 50% at […]), the concentration of the compound was increased to 20 μm and the % inhibition value and the IC50 value were obtained.

`CN1C(=O)S/C(=C\c2cn(-c3ccccc3)nc2-c2cccc([N+](=O)[O-])c2)C1=O` [Compound 15, 5-[3-(3-nitro)-1-phenyl-1H-pyrazol-4-ylmethylene]-3-methyl-thiazolidine-2,4-dione] and `O=C1NC(=O)C(=Cc2cn(-c3ccccc3)nc2-c2cccc(Br)c2)S1` [Compound 3] are within 1.5-fold of each other in IC50: 8.28 µM for the first, 9.45 µM for the second.

`CCCOc1c(Cl)cccc1-c1nn(-c2ccccc2)cc1/C=C1\SC(=O)NC1=O` [Compound 70] and `CCOc1c(Cl)cccc1-c1nn(-c2ccccc2)cc1/C=C1\SC(=O)NC1=O` [Compound 67] are within 1.5-fold of each other in IC50: 4.05 µM for the first, 3.41 µM for the second.

`CCCOc1cc(OCCC)cc(-c2nn(-c3ccccc3)cc2/C=C2\SC(=O)NC2=O)c1` [Compound 25] and `CCCOc1c(Br)cc(-c2nn(-c3ccccc3)cc2/C=C2\SC(=O)NC2=O)cc1Br` [Compound 163] are within 1.5-fold of each other in IC50: 1.86 µM for the first, 1.5 µM for the second.

`COc1ccc(-c2nn(-c3ccccc3)cc2/C=C2\SC(=O)NC2=O)cc1C(C)C` [Compound 136] and `CCCOc1ccc(-c2nn(-c3ccccc3)cc2/C=C2\SC(=O)NC2=O)cc1C(C)C` [Compound 141] are within 1.5-fold of each other in IC50: 2.06 µM for the first, 2.24 µM for the second.

`O=C1NC(=O)/C(=C/c2cn(-c3ccccc3)nc2-c2cc(OCC3CC3)cc(OCC3CC3)c2)S1` [Compound 35] and `O=C1NC(=O)/C(=C/c2cn(-c3ccccc3)nc2-c2ccc(OCC3CC3)c(Br)c2)S1` [Compound 94] are within 1.5-fold of each other in IC50: 1.52 µM for the first, 1.63 µM for the second.

First: CCCOc1ccc(-c2nn(-c3ccccc3)cc2/C=C2\SC(=O)NC2=O)cc1Br [Compound 82]
Second: CCOc1ccc(-c2nn(-c3ccccc3)cc2C=C2SC(=O)NC2=O)cc1Br [Compound 77, 5-[3-(3-bromo-4-ethoxy-phenyl)-1-phenyl-1H-pyrazol-4-ylmethylene]-thiazolidine-2,4-dione]
The IC50 of the first is 2-fold lower: 2.81 µM for the first, 5.65 µM for the second.

First: CCOc1c(Cl)cccc1-c1nn(-c2ccccc2)cc1/C=C1\SC(=O)N(CC)C1=O [Compound 69]
Second: CCN1C(=O)SC(=Cc2cn(-c3ccccc3)nc2-c2ccccc2Cl)C1=O [Compound 2]
The IC50 of the first is 1.6-fold lower: 7.2 µM for the first, 11.4 µM for the second.

`C=CCOc1ccc(-c2nn(-c3ccccc3)cc2/C=C2\SC(=O)NC2=O)cc1Br` [Compound 88] and `C#CCOc1ccc(-c2nn(-c3ccccc3)cc2/C=C2\SC(=O)NC2=O)cc1Br` [Compound 100] are within 1.5-fold of each other in IC50: 2.21 µM for the first, 2.98 µM for the second.

Compared with `C#CCN1C(=O)S/C(=C\c2cn(-c3ccccc3)nc2-c2cc(Br)c(OCC=C)c(Br)c2)C1=O` [Compound 169], `CCOc1c(Br)cc(-c2nn(-c3ccccc3)cc2/C=C2\SC(=O)N(CC)C2=O)cc1Br` [Compound 153] is 5.2-fold lower in IC50: 7.14 µM for the first, 1.36 µM for the second.

Going from `COc1c(Cl)cccc1-c1nn(-c2ccccc2)cc1/C=C1\SC(=O)NC1=O` [Compound 66] to `COc1ccc(-c2nn(-c3ccccc3)cc2/C=C2\SC(=O)NC2=O)cc1I` [Compound 111], the IC50 falls from 10.6 µM to 3.25 µM (3.3-fold). The second is the more potent here.

First: CCCN1C(=O)S/C(=C\c2cn(-c3ccccc3)nc2-c2ccc(OCC)c(I)c2)C1=O [Compound 118]
Second: CCOc1ccc(-c2nn(-c3ccccc3)cc2/C=C2\SC(=O)N(CC)C2=O)cc1I [Compound 117]
The IC50 of the first is 16-fold higher: 9.25 µM for the first, 0.59 µM for the second.

Compared with `CCCOc1ccc(-c2nn(-c3ccccc3)cc2/C=C2\SC(=O)NC2=O)cc1I` [Compound 122], `CCOc1ccc(-c2nn(-c3ccccc3)cc2C=C2SC(=O)NC2=O)cc1I` [Compound 115] is 1.6-fold higher in IC50: 0.36 µM for the first, 0.57 µM for the second.

First: O=C1NC(=O)/C(=C/c2cn(-c3ccccc3)nc2-c2cccc(C(F)(F)F)c2)S1 [Compound 16, 5-[3-(3-trifluoromethyl)-1-phenyl-1H-pyrazol-4-ylmethylene]-thiazolidine-2,4-dione]
Second: O=C1NC(=O)C(=Cc2cn(-c3ccccc3)nc2-c2cc(F)cc(F)c2)S1 [Compound 58, 5-[3-(3,5-difluoro-phenyl)-1-phenyl-1H-pyrazol-4-ylmethylene]-thiazolidine-2,4-dione]
The IC50 of the first is 25-fold lower: 0.23 µM for the first, 5.79 µM for the second.

Going from `CCCOc1ccc(-c2nn(-c3ccccc3)cc2/C=C2\SC(=O)NC2=O)cc1C(C)(C)C` [Compound 142] to `CCOc1ccc(-c2nn(-c3ccccc3)cc2C=C2SC(=O)NC2=O)cc1I` [Compound 121], the IC50 rises from 1.48 µM to 2.6 µM (1.8-fold). The first is the more potent here.

`COc1c(Br)cc(-c2nn(-c3ccccc3)cc2/C=C2\SC(=O)NC2=O)cc1Br` [Compound 145] and `CCOc1c(Br)cc(-c2nn(-c3ccccc3)cc2/C=C2\SC(=O)NC2=O)cc1Br` [Compound 151] are within 1.5-fold of each other in IC50: 1.84 µM for the first, 1.4 µM for the second.

`C#CCN1C(=O)S/C(=C\c2cn(-c3ccccc3)nc2-c2ccc(OCC=C)c(I)c2)C1=O` [Compound 133] and `C=CCOc1ccc(-c2nn(-c3ccccc3)cc2/C=C2\SC(=O)N(CC=C)C2=O)cc1I` [Compound 132] are within 1.5-fold of each other in IC50: 4.99 µM for the first, 3.6 µM for the second.

`O=C1NC(=O)/C(=C/c2cn(-c3ccc([N+](=O)[O-])cc3)nc2-c2cc(OCc3ccccc3)cc(OCc3ccccc3)c2)S1` [Compound 65] and `O=C1NC(=O)/C(=C/c2cn(-c3ccccc3)nc2-c2cc(OCc3ccccc3)cc(OCc3ccccc3)c2)S1` [Compound 62] are within 1.5-fold of each other in IC50: 0.21 µM for the first, 0.23 µM for the second.

First: C=CCN1C(=O)S/C(=C\c2cn(-c3ccccc3)nc2-c2cc(Br)c(OC(F)F)c(Br)c2)C1=O [Compound 182]
Second: O=C1NC(=O)/C(=C/c2cn(-c3ccccc3)nc2-c2cc(Br)c(OC(F)F)c(Br)c2)S1 [Compound 178]
The IC50 of the first is 19-fold higher: 13.6 µM for the first, 0.71 µM for the second.

First: CCN1C(=O)S/C(=C\c2cn(-c3ccccc3)nc2-c2cc(Br)c(OCC3CC3)c(Br)c2)C1=O [Compound 173]
Second: C=CCOc1c(Br)cc(-c2nn(-c3ccccc3)cc2/C=C2\SC(=O)NC2=O)cc1Br [Compound 164]
The IC50 of the first is 14-fold higher: 2.35 µM for the first, 0.17 µM for the second.

Compared with `O=C1NC(=O)/C(=C/c2cn(-c3ccccc3)nc2-c2cc(OC3CCCC3)cc(OC3CCCC3)c2)S1` [Compound 41], `CC(C)Oc1cc(OC(C)C)cc(-c2nn(-c3ccccc3)cc2/C=C2\SC(=O)NC2=O)c1` [Compound 30] is 11-fold higher in IC50: 0.54 µM for the first, 5.74 µM for the second.

`O=C1NC(=O)/C(=C/c2cn(-c3ccccc3)nc2-c2ccc(OC(F)F)c(OCC3CC3)c2)S1` [Compound 52] and `COc1c(C(C)C)cc(-c2nn(-c3ccccc3)cc2/C=C2\SC(=O)NC2=O)cc1C(C)C` [Compound 184] are within 1.5-fold of each other in IC50: 2.83 µM for the first, 3.66 µM for the second.

First: CCN1C(=O)S/C(=C\c2cn(-c3ccccc3)nc2-c2ccccc2Br)C1=O [Compound 5]
Second: CCCOc1ccc(-c2nn(-c3ccccc3)cc2/C=C2\SC(=O)N(CCC)C2=O)cc1Br [Compound 85]
The IC50 of the first is 4.4-fold higher: 8.96 µM for the first, 2.02 µM for the second.

Compared with `CCCOc1c(C(C)C)cc(-c2nn(-c3ccccc3)cc2/C=C2\SC(=O)NC2=O)cc1C(C)C` [Compound 190], `CC(C)(C)c1cc(-c2nn(-c3ccccc3)cc2/C=C2\SC(=O)NC2=O)cc(C(C)(C)C)c1O` [Compound 192] is 3.7-fold higher in IC50: 1.09 µM for the first, 3.99 µM for the second. The first is the more potent here.
